Molecular target: T1, ENPP1 (Homo sapiens, UniProt P22413)
T1 sequence (P22413 1-925): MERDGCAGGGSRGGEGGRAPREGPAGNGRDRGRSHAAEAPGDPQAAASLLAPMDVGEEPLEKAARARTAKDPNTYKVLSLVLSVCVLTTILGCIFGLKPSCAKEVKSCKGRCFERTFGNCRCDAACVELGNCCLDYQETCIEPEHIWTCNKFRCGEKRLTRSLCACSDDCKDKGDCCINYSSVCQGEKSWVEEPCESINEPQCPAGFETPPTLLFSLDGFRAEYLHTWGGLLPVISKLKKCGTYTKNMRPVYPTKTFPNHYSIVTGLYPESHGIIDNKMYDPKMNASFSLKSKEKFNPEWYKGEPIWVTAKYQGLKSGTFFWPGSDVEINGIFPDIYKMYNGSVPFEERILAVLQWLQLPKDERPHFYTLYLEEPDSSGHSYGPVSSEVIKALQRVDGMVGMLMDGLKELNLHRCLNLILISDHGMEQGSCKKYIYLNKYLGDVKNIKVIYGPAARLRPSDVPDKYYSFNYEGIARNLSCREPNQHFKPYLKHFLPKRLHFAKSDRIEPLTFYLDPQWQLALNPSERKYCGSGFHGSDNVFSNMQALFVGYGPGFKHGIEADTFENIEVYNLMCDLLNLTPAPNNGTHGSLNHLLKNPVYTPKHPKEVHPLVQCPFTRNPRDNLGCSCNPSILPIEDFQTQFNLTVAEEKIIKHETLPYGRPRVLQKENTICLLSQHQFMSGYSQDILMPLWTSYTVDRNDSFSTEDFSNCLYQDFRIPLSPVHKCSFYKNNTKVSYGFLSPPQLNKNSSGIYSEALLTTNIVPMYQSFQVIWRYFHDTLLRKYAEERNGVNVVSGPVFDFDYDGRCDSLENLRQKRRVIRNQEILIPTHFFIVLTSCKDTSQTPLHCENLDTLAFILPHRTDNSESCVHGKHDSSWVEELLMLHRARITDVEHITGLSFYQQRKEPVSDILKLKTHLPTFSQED
Assay: ENPP1 enzymatic assay, cGAMP hydrolysis
Assay type: biochemical

- IC50: 142 nM
Substance: QS1

— PMC12102218 (Nature Communications, 2025)
